Data taken from article PMC11172460 (International Journal of Molecular Sciences, 2024).
Converted amounts (≈) assume the structure as drawn. “And” between values parts separate entries of the source, which are not always exact repeats. Identical values can stand only once. Like-named read-outs stand apart in the source and are kept apart here.

Tests used:
[1] = Hydrolysis kinetics in human whole blood; type: in vitro ADME
Protocol: Kinetic analysis of Fer-Ger was performed by incubating the compound at 37 °C in heparinized whole blood obtained from healthy human volunteers or from male Wistar rats weighing 200–250 g. In particular, appropriate amounts of stock solution in DMSO were added to a volume of 3 mL of whole blood in order to obtain the final concentration of 30 µM (9.92 µg/mL). Samples (100 μL) were withdrawn at defined time intervals and immediately treated. Specifically, they were firstly added to ice-cold water (500 µL); then, sulfosalicylic acid (10%, 50 µL) and the internal standard (100 μM carbazole dissolved in a mixture of MeOH and H2O 50:50 v/v, 50 µL) were added; finally, 1 mL of H2O-saturated ethyl acetate was used twice as extraction solvent. The samples were centrifuged (13,500× g for 10 min) and the organic phase was evaporated under a nitrogen stream. The residue was re-suspended in a mixture of H2O and CH3CN (50:50 v/v, 150 µL) and centrifuged (16,000× g for 5 min). […]
The Fer-Ger degradation in whole blood or homogenates was analyzed as exponential decay plots of its concentrations versus incubation time, and the related half-life values were obtained from the linear regression of the corresponding semi-logarithmic plots. The quality of the fits was evaluated by considering the correlation coefficients (r) and p values. […]
Fer-Ger and its hydrolysis product, Ger, were quantified by HPLC. […]

[2] = test system: neuronal differentiated N2a cells; assay: MTT assay for evaluation of Fer-Ger toxicity; type: cell-based, mouse; conditions: 1 h exposure
Protocol: N2a cells were seeded on T75 flasks and grown in Dulbecco’s Modified Eagle Medium (DMEM) containing Glutamax, supplemented with 100 μg/mL streptomycin, 100 IU/mL penicillin, and 10% fetal bovine serum (FBS) in a humidified 5% CO2 atmosphere at 37 °C. After two passages by trypsinization, cells were seeded at a density of 5 × 10^3 cells/well in 12-well plates with 2 mL of DMEM or at a density of 5 × 10^2 cells/well in 96-well plates with 0.2 mL of DMEM, depending on the study (see below). […]
The potential neurotoxicity of Fer-Ger in N2a differentiated cells, seeded at a density of 5 × 10^2 cells/well in a 96-well plate as reported above, was assayed with the 3-(4,5-dimethylthiazol-2-yl)-2,5-diphenyltetrazolium (MTT) test after incubation for 1 h at 37 °C in a humidified 5% of CO2 atmosphere at 37 °C with increasing concentrations (1, 5, 10, 40, 70, 100 µM) of Fer-Ger dissolved in 0.2 mL of DPBS, supplemented with 0.9 mM CaCl2, 0.5 mM MgCl2, 5.3 mM glucose, and 0.1% BSA to ensure the solubilization of the compound in aqueous media. […] Finally, the absorbance of each well was measured at 570 nm using a microtiter plate reader (Sunrise® Microplate Reader, Tecan Trading AG, Männedorf, Switzerland). The values were expressed as cell vitality percentages with respect to control in the absence of compounds. […]

[3] = Solubility measurements; type: physicochemical; conditions: 25 °C, thermodynamic from solid
Protocol: Solubility measurements of pure Fer-Ger were performed by adding an excess amount of Fer-Ger (about 10 mg) in 5 mL of pure water, DPBS, or a mixture made of DPBS and methanol (70:30 v/v) at 25 °C. The samples were magnetically stirred for 48 h. The supernatant was filtered through a 0.45 μm regenerate-cellulose membrane filter, and 10 µL of the filtered samples were injected into the HPLC-DAD system for Fer-Ger quantification. The study was performed in triplicate.

[4] = In vitro dissolution and release from SLMs; type: physicochemical; conditions: within 6 h, DPBS/MeOH 70:30 v/v, 37 °C
Protocol: Fer-Ger dissolution and release from the SLMs were evaluated by adding raw Fer-Ger (about 0.1 mg) or SLMs, containing an equivalent amount of Fer-Ger, to 60 mL of a mixture of DPBS and methanol (70:30 v/v). The samples were kept under mechanical stirring at 50 rpm and 37 °C. At defined time intervals, 0.2 mL aliquots of the medium were withdrawn and replaced with an equal volume of fresh fluid. The aliquots were filtered (0.45 μm) and injected (10 μL) into the HPLC apparatus for Fer-Ger quantification. The dissolution or release (%) of Fer-Ger was calculated from its total amount incubated as a free compound or contained in the SLMs, respectively. The data were determined from the average of three independent experiments.

## COc1cc(/C=C/C(=O)OC/C=C(\C)CCC=C(C)C)ccc1O [Fer-Ger, Geranyl ferulate]
[1]; after three hours of incubation in human whole blood, % of overall incubated amount
  remaining amount of Fer-Ger: about 50%
[1]; heparinized whole blood, human whole blood, 37 °C, 30 µM, pseudo-first order kinetic, read-out: half-life (t1/2) of hydrolysis
  half-life at 30 µM: 3.23 ± 0.349 h
[2]; p < 0.05 vs untreated cells
  concentration at which neurotoxic effect starts: 40 µM
[2]; Mus musculus, neuronal differentiated N2a cells, read-out: IC50 value of cell viability
  IC50: 84.09 ± 0.26 µM
[3]; DPBS, aqueous buffer, read-out: solubility in DPBS
  solubility at 48 h: 0.24 ± 0.01 µg/mL (≈ 0.726 µM)
[3]; DPBS/methanol 70:30 v/v, aqueous with cosolvent or surfactant or cyclodextrin, DPBS and MeOH 70:30 v/v, read-out: solubility in mixture of DPBS and MeOH
  solubility at 48 h: 8.1 ± 0.3 µg/mL (≈ 24.5 µM)
[3]; pure water, water, read-out: water solubility
  solubility at 48 h: 0.26 µg/mL and 0.77 µM
[4]
  raw powder solubilized (dissolution): about 30%
